Patent US12492193B2, “Pyrazole derivatives for the treatment of cystic fibrosis” (Fondazione Istituto Italiano Di Tecnologia, priority 2017, dated 2025)

Target: T1, mutant CFTR (Homo sapiens, UniProt P13569, DEL508-508)
T1 construct: expressed in transfected cells
Assay: Fluorescence (HS-YFP) assay for CFTR activity, corrector assay
Assay type: cell-based
Conditions: CFBE41o- and FRT cells with stable expression of mutant CFTR, 24 h compound treatment
Protocol: Fluorescence Assay for CFTR Activity
Mutant CFTR activity was determined with the functional assay based on the halide-sensitive yellow fluorescent protein, HS-YFP (Galietta et al., FEBS Lett 499: 220-224, 2001). CFBE41o- and FRT cells with stable expression of mutant CFTR and HS-YFP were plated on clear-bottom 96-well black microplates (Code 3603, Corning Life Sciences) at a density of 50,000 cells/well and kept at 37° C. in 5% CO2 for 24 hours. For the corrector assay, cells were treated for further 24 hours with test compounds, vehicle (DMSO), or the positive control VX-809. After treatment, the culture medium was removed and cells in each well were stimulated for 30 min at 37° C. with 60 μL PBS (containing 137 mM NaCl, 2.7 mM KCl, 8.1 mM Na2HPO4, 1.5 mM KH2PO4, 1 mM CaCl2, and 0.5 mM MgCl2) plus forskolin (20 μM) and genistein (50 μM).
For determination of potentiator activity on G551D-CFTR or G1349D-CFTR, cells were directly stimulated with forskolin plus test compound without previous incubation at low temperature. At the time of assay, microplates carrying CFBE41o- or FRT cells were transferred to microplate readers (BMG Labtech) equipped with high-quality excitation (HQ500/20X: 500±10 nm) and emission (HQ535/30M: 535±15 nm) filters for YFP (Chroma Technology). The assay consisted of a continuous 14 s fluorescence reading with 2 s before and 12 s after injection of an iodide-containing solution (165 μL of a modified PBS containing I^− instead of Cl^−; final I^− concentration in the well: 100 mM). Data were normalized to the initial background-subtracted fluorescence. Enhanced CFTR activity, induced by correctors and/or potentiators, results in accelerated I^− influx that in turn causes faster HS-YFP quenching (Pedemonte et al., Mol Pharmacol 68:1736-1746, 2005; Pedemonte et al., J Clin Invest 115:2564-2571, […]). To determine fluorescence quenching rate associated with I^− influx, the […] 10 s of data for each well were fitted with an exponential function to extrapolate initial slope (dF/dt).
EC50 obtained are illustrated in table 1 wherein +: EC50>2 μM; ++: 1.0 μM<EC50<2 μM; +++: EC50<1 μM.

T1 sequence (P13569 with tags, fused parts or gaps DEL508-508): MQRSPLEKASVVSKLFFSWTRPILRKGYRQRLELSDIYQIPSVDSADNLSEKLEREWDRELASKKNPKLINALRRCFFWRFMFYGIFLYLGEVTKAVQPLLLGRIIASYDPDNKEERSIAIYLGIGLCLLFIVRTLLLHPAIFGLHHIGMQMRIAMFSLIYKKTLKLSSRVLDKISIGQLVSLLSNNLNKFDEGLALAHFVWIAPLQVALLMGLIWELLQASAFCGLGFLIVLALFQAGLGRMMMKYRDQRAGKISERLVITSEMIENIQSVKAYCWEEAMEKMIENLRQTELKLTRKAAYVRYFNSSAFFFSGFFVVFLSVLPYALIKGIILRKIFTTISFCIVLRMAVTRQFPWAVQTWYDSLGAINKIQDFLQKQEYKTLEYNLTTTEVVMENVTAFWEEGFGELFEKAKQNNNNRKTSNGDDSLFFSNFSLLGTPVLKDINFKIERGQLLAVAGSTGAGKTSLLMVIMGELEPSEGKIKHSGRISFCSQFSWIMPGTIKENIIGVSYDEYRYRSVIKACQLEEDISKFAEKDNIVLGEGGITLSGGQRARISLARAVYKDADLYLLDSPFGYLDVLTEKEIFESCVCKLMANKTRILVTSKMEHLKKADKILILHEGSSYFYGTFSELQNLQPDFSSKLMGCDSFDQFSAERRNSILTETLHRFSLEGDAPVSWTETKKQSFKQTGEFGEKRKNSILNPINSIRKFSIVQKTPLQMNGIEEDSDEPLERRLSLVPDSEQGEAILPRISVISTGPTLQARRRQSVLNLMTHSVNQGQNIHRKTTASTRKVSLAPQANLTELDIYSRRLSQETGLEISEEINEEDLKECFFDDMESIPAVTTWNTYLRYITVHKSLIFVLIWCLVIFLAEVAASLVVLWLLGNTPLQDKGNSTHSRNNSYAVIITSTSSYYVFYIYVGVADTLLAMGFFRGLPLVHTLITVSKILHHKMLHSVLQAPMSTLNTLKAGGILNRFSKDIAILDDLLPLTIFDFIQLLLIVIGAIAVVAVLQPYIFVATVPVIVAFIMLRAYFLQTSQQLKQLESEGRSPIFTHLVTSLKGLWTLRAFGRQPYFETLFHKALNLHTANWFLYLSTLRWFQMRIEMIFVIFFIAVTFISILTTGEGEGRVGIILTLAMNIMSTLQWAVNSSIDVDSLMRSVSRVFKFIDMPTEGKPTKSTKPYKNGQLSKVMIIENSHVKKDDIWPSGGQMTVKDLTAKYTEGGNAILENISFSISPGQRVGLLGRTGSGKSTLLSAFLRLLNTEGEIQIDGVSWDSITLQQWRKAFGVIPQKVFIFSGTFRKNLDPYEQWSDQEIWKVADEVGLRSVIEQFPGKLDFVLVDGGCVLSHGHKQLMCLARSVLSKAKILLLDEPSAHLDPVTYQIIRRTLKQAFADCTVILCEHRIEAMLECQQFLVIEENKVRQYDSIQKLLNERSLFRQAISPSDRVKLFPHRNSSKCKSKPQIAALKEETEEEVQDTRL

## Cc1nnc(-c2c(Cl)c(C)nn2-c2cccc(C(=O)N(C)c3ccc4c(c3)OCO4)c2)o1 [compound 129, N-(1,3-Benzodioxol-5-yl)-3-[4-chloro-3-methyl-5-(5-methyl-1,3,4-oxadiazol-2-yl)pyrazol-1-yl]-N-methyl-benzamide]
  EC50: < 1000 nM

## Cc1nn(-c2cccc(C(=O)N(C)c3ccc4oc(C(C)C)nc4c3)c2)c(C)c1Cl [compound 062, 3-(4-Chloro-3,5-dimethyl-pyrazol-1-yl)-N-(2-isopropyl-1,3-benzoxazol-5-yl)-N-methyl-benzamide]
  EC50: > 2000 nM

## Cc1c(Cl)c(C(F)(F)F)nn1-c1cccc(C(=O)N(C)c2ccc3c(c2CO)OCO3)c1 [compound 209, 3-[4-chloro-5-methyl-3-(trifluoromethyl)pyrazol-1-yl]-N-[4-(hydroxymethyl)-1,3-benzodioxol-5-yl]-N-methyl-benzamide]
  EC50: > 2000 nM

## Cc1nn(-c2cccc(S(=O)(=O)N(C)c3ccc4c(c3)OC(F)(F)O4)c2)c(C)c1Cl [compound 035, 3-(4-Chloro-3,5-dimethyl-pyrazol-1-yl)-N-(2,2-difluoro-1,3-benzodioxol-5-yl)-N-methyl-benzenesulfonamide]
  EC50: > 2000 nM

## CN(C(=O)c1cccc(-n2nc(C(F)(F)F)cc2-c2cccnc2)c1)c1ccc2c(c1)OCO2 [compound 193, N-(1,3-Benzodioxol-5-yl)-N-methyl-3-[5-(3-pyridyl)-3-(trifluoromethyl)pyrazol-1-yl]benzamide]
  EC50: < 1000 nM

## Cc1nc2cc(Cl)c(N(C)C(=O)c3cccc(-n4nc(C(F)(F)F)c(Cl)c4C4CC4)c3)cc2o1 [compound 139, 3-[4-Chloro-5-cyclopropyl-3-(trifluoromethyl)pyrazol-1-yl]-N-(5-chloro-2-methyl-1,3-benzoxazol-6-yl)-N-methyl-benzamide]
  EC50: < 1000 nM

## Cc1nn(-c2cccc(C(=O)N(C)c3ccccc3)c2)c(C)c1Cl [compound 007, 3-(4-Chloro-3,5-dimethyl-pyrazol-1-yl)-N-methyl-N-phenyl-benzamide]
  EC50: > 2000 nM

## COC(=O)c1ccc(COc2c(Cl)c(C(F)(F)F)nn2-c2cccc(C(=O)N(C)c3cc4c(cc3Cl)OCO4)c2)cc1 [compound 156, Methyl 4-[[4-chloro-2-[3-[(6-chloro-1,3-benzodioxol-5-yl)-methyl-carbamoyl]phenyl]-5-(trifluoromethyl)pyrazol-3-yl]oxymethyl]benzoate]
  EC50: < 1000 nM

## Cc1ccc(-n2nc(C)c(Cl)c2C)cc1C(=O)N(C)c1ccc2c(c1)OCCO2 [compound 031, 5-(4-chloro-3,5-dimethyl-pyrazol-1-yl)-N-(2,3-dihydro-1,4-benzodioxin-6-yl)-N, 2-dimethyl-benzamide]
  EC50: > 2000 nM

## Cc1nn(-c2cccc(C(=O)N(C)c3cc4c(cc3Cl)OCCO4)c2)c(C)c1Cl [compound 032, N-(6-chloro-2,3-dihydro-1,4-benzodioxin-7-yl)-3-(4-chloro-3,5-dimethyl-pyrazol-1-yl)-N-methyl-benzamide]
  EC50: < 1000 nM

## CN(C(=O)c1cccc(-n2nc(-c3cccnc3)cc2C(F)(F)F)c1)c1ccc2c(c1)OCO2 [compound 194, N-(1,3-Benzodioxol-5-yl)-N-methyl-3-[3-(3-pyridyl)-5-(trifluoromethyl)pyrazol-1-yl]benzamide]
  EC50: 1000 to 2000 nM

## Cc1c(Cl)c(C(F)(F)F)nn1-c1cccc(C(=O)Nc2ccc3cn(C)nc3c2)c1 [Int-121, 3-[4-Chloro-5-methyl-3-(trifluoromethyl)pyrazol-1-yl]-N-(2-methylindazol-6-yl)benzamide]
  EC50: > 2000 nM

## Cc1c(Cl)c(C(F)(F)F)nn1-c1cccc(C(=O)N(C)c2cc3c(cc2C#N)OCO3)c1 [compound 163, 3-[4-chloro-5-methyl-3-(trifluoromethyl)pyrazol-1-yl]-N-(6-cyano-1,3-benzodioxol-5-yl)-N-methyl-benzamide]
  EC50: < 1000 nM

## Cc1cc2ncc(N(C)C(=O)c3cccc(-n4nc(C(F)(F)F)c(Cl)c4COc4ccc(C(=O)O)cc4)c3)cn2n1 [compound 238, 4-[[4-Chloro-2-[3-[methyl-(2-methylpyrazolo[1,5-a]pyrimidin-6-yl)carbamoyl]phenyl]-5-(trifluoromethyl)pyrazol-3-yl]methoxy]benzoic acid]
  EC50: 1000 to 2000 nM

## COc1nc2cc(NC(=O)c3cccc(-n4nc(C)c(Cl)c4C)c3)ccc2o1 [Int-063, 3-(4-Chloro-3,5-dimethyl-pyrazol-1-yl)-N-(2-methoxy-1,3-benzoxazol-5-yl)benzamide]
  EC50: > 2000 nM

## COC(=O)C12CC(COc3cc(C(F)(F)F)nn3-c3cccc(C(=O)N(C)c4ccc5c(c4)OC(F)(F)O5)c3)(C1)C2 [compound 254, Methyl 3-[[2-[3-[(2,2-difluoro-1,3-benzodioxol-5-yl)-methyl-carbamoyl]phenyl]-5-(trifluoromethyl)pyrazol-3-yl]oxymethyl]bicyclo[1.1.1]pentane-1-carboxylate]
  EC50: < 1000 nM

## Cc1c(C=O)c(C(F)(F)F)nn1-c1cccc(C(=O)N(C)c2ccc3c(c2)OCO3)c1 [compound 186, N-(1,3-Benzodioxol-5-yl)-3-[4-formyl-5-methyl-3-(trifluoromethyl)pyrazol-1-yl]-N-methyl-benzamide]
  EC50: < 1000 nM

## Cc1noc2cc(N(C)C(=O)c3cccc(-n4nc(C(F)(F)F)c(Cl)c4COc4ccc(C(=O)O)cc4)c3)ccc12 [compound 245, 4-[[4-Chloro-2-[3-[methyl-(3-methyl-1,2-benzoxazol-6-yl)carbamoyl]phenyl]-5-(trifluoromethyl)pyrazol-3-yl]methoxy]benzoic acid]
  EC50: < 1000 nM

## CC(C)Cc1c(Cl)c(C(F)(F)F)nn1-c1cccc(C(=O)N(C)c2ccc3c(c2)OCO3)c1 [compound 101, N-(1,3-Benzodioxol-5-yl)-3-[4-chloro-5-isobutyl-3-(trifluoromethyl)pyrazol-1-yl]-N-methyl-benzamide]
  EC50: < 1000 nM

## COC(=O)c1ccc(COc2c(Cl)c(C(F)(F)F)nn2-c2cccc(C(=O)N(C)c3ccc4c(c3)OCO4)c2)cc1 [compound 155, Methyl 4-[[2-[3-[1,3-benzodioxol-5-yl(methyl)carbamoyl]phenyl]-4-chloro-5-(trifluoromethyl)pyrazol-3-yl]oxymethyl]benzoate]
  EC50: < 1000 nM

## CN(C(=O)c1cccc(-n2nc(C(F)(F)F)c(Cl)c2C2CC2)c1)c1ccc2c(c1)OCO2 [compound 111, N-(1,3-Benzodioxol-5-yl)-3-[4-chloro-5-cyclopropyl-3-(trifluoromethyl)pyrazol-1-yl]-N-methyl-benzamide]
  EC50: < 1000 nM

## Cc1cc(C(F)(F)F)nn1-c1cccc(S(=O)(=O)N(C)c2ccc3c(c2)OCO3)c1 [compound 204, N-(1,3-Benzodioxol-5-yl)-N-methyl-3-[5-methyl-3-(trifluoromethyl)pyrazol-1-yl]benzenesulfonamide]
  EC50: 1000 to 2000 nM

## Cc1cc2cc(N(C)C(=O)c3cccc(-n4nc(C(F)(F)F)c(Cl)c4COc4ccc(C(=O)O)cc4)c3)ccn2n1 [compound 239, 4-[[4-Chloro-2-[3-[methyl-(2-methylpyrazolo[1,5-a]pyridin-5-yl)carbamoyl]phenyl]-5-(trifluoromethyl)pyrazol-3-yl]methoxy]benzoic acid]
  EC50: < 1000 nM

## Cc1c(Cl)c(C(=O)O)nn1-c1cccc(C(=O)N(C)c2ccc3c(c2)OCO3)c1 [compound 069, 1-[3-[1,3-Benzodioxol-5-yl(methyl)carbamoyl]phenyl]-4-chloro-5-methyl-pyrazole-3-carboxylic acid]
  EC50: > 2000 nM
